# From the supplement of paper PMC10307832
# Compound: CCn1c(-c2nonc2N)nc2c(C#CC(C)(C)O)ncc(OC[C@H]3CCCNC3)c21 + NC(=O)Nc1cc(-c2cccc(F)c2)sc1C(=O)N[C@H]1CCCNC1 [AZD7762] (partner 0.2 µM)
# Assay: relative viability (nuclei count vs DMSO), 5 days (fraction); higher = more cells survive
# Conditions: first compound 1 µM
# Procedure, shortened: (§1)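 Each reported value is a median over duplicate plates. It expresses relative viability: treated-well nuclei count divided by vehicle-well nuclei count. Lung cancer cell lines in 1536-well plates were dosed by pin tool a day after seeding, alone with one drug or with a fixed anchor-drug dose plus five library-drug doses (not always all listed) in √10 steps, and nuclei were counted after 5 days.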
row,Cell Line,relative viability
1,NCI-H647,0.486
2,NCI-H1651,0.337
3,EPLC-272H,0.211
4,NCI-H1792,0.602
5,NCI-H1355,0.743
6,NCI-H3122,1.04
7,NCI-H1437,0.953
8,NCI-H1755,0.425
9,HCC-15,1.37
10,NCI-H1793,0.411
11,PC-14,0.342
12,EKVX,0.596
13,LC-2-ad,0.867
14,NCI-H1944,0.654
15,NCI-H1975,0.641
16,RERF-LC-KJ,1.05
17,ABC-1,0.594

# Compound: CCn1c(-c2nonc2N)nc2c(C#CC(C)(C)O)ncc(OC[C@H]3CCCNC3)c21 + Nc1ncn([C@H]2C[C@H](O)[C@@H](CO)O2)c(=O)n1 [Decitabine] (partner 2 µM)
# Assay: as above
# Conditions: first compound 0.01 µM
# Procedure, shortened: as §1
row,Cell Line,relative viability
1,LU99A,0.884
2,BEN,0.682
3,HARA,0.508
4,HCC-78,0.628
5,NCI-H322M,0.785
6,LCLC-97TM1,0.2
7,A-427,0.558
8,NCI-H441,0.226
9,NCI-H1734,0.453
10,NCI-H460,0.529
11,NCI-H2347,0.603
12,NCI-H1395,0.819
13,201T,0.879
14,NCI-H1915,0.254
15,HCC-827,0.348
16,LXF-289,0.42
17,NCI-H23,0.287

row,Cell Line,relative viability
1,NCI-H647,0.384
2,NCI-H1651,0.582
3,EPLC-272H,0.413
4,NCI-H1792,0.558
5,NCI-H1355,0.339
6,NCI-H3122,0.499
7,NCI-H1437,0.558
8,NCI-H1755,0.727
9,HCC-15,0.695
10,NCI-H1793,0.478
11,PC-14,0.25
12,EKVX,0.325
13,LC-2-ad,0.776
14,NCI-H1944,0.443
15,NCI-H1975,0.428
16,RERF-LC-KJ,0.694
17,ABC-1,1.18

# Same assay, conditions: first compound 0.03162 µM
row,Cell Line,relative viability
1,LU99A,0.971
2,BEN,0.693
3,HARA,0.486
4,HCC-78,0.627
5,NCI-H322M,0.721
6,LCLC-97TM1,0.226
7,A-427,0.61
8,NCI-H441,0.226
9,NCI-H1734,0.496
10,NCI-H460,0.398
11,NCI-H2347,0.575
12,NCI-H1395,0.735
13,201T,0.822
14,NCI-H1915,0.252
15,HCC-827,0.319
16,LXF-289,0.369
17,NCI-H23,0.332

row,Cell Line,relative viability
1,NCI-H647,0.379
2,NCI-H1651,0.608
3,EPLC-272H,0.378
4,NCI-H1792,0.499
5,NCI-H1355,0.346
6,NCI-H3122,0.364
7,NCI-H1437,0.541
8,NCI-H1755,0.753
9,HCC-15,0.648
10,NCI-H1793,0.522
11,PC-14,0.2
12,EKVX,0.37
13,LC-2-ad,0.824
14,NCI-H1944,0.415
15,NCI-H1975,0.382
16,RERF-LC-KJ,0.643

# Same assay, conditions: first compound 0.1 µM
row,Cell Line,relative viability
1,LU99A,0.866
2,BEN,0.569
3,HARA,0.656
4,HCC-78,0.674
5,NCI-H322M,0.617
6,LCLC-97TM1,0.268
7,A-427,0.589
8,NCI-H441,0.271
9,NCI-H1734,0.546
10,NCI-H460,0.493
11,NCI-H2347,0.616
12,NCI-H1395,0.742
13,201T,0.888
14,NCI-H1915,0.258
15,HCC-827,0.331
16,LXF-289,0.352
17,NCI-H23,0.307

row,Cell Line,relative viability
1,NCI-H647,0.407
2,NCI-H1651,0.652
3,EPLC-272H,0.349
4,NCI-H1792,0.547
5,NCI-H1355,0.385
6,NCI-H3122,0.427
7,NCI-H1437,0.564
8,NCI-H1755,0.673
9,HCC-15,0.637
10,PC-14,0.222
11,EKVX,0.369
12,LC-2-ad,0.875
13,NCI-H1944,0.45
14,NCI-H1975,0.378
15,RERF-LC-KJ,0.684
16,ABC-1,1.2

# Same assay, conditions: first compound 0.3162 µM
row,Cell Line,relative viability
1,LU99A,0.826
2,BEN,0.67
3,HARA,0.551
4,HCC-78,0.709
5,NCI-H322M,0.593
6,LCLC-97TM1,0.235
7,A-427,0.54
8,NCI-H441,0.197
9,NCI-H1734,0.465
10,NCI-H460,0.465
11,NCI-H2347,0.577
12,NCI-H1395,0.583
13,201T,0.837
14,NCI-H1915,0.248
15,HCC-827,0.308
16,LXF-289,0.35
17,NCI-H23,0.27

row,Cell Line,relative viability
1,NCI-H647,0.299
2,NCI-H1651,0.597
3,EPLC-272H,0.347
4,NCI-H1792,0.419
5,NCI-H1355,0.324
6,NCI-H3122,0.436
7,NCI-H1437,0.611
8,NCI-H1755,0.669
9,HCC-15,0.558
10,NCI-H1793,0.534
11,PC-14,0.197
12,EKVX,0.347
13,LC-2-ad,0.705
14,NCI-H1944,0.446
15,NCI-H1975,0.409
16,RERF-LC-KJ,0.59
17,ABC-1,0.97

# Same assay, conditions: first compound 1 µM
row,Cell Line,relative viability
1,LU99A,0.883
2,BEN,0.782
3,HARA,0.498
4,HCC-78,0.543
5,NCI-H322M,0.575
6,LCLC-97TM1,0.268
7,A-427,0.562
8,NCI-H441,0.29
9,NCI-H1734,0.484
